Results: US9017644B2, “Methods of treating autoimmune disorders and/or inflammatory disorders” (priority 2008, dated 2015)

How the values were obtained:
[1] = system: developing type II collagen arthritis; test: Rat collagen arthritis model, treatment alone or in combination with etanercept (Example 5); assay type: in vivo; details: for % decrease in ankle diameter verses disease control, drug alone: day 17
Source text: (§1) Rat collagen induced arthritis is an experimental model of polyarthritis that has been widely used for preclinical testing of numerous anti-arthritic agents. Rat type II collagen arthritis results when rats are immunized against homologous or heterologous type II collagen. […] As used herein “significant” means that p≦0.05. Unless specified as “normal control” or “disease control” reference to “animal” means a rat with developing type II collagen arthritis.
Bovine Type II collagen (Sigma) was diluted with 0.1N acetic acid to a concentration of 4 mg/ml. and emulsified with an equal volume of Freund's incomplete adjuvant (Sigma). Female Lewis rats (Charles River) were randomized by weigh into 10 study groups Table 3 identifies the groups that were used for evaluation of efficacy and Table 4 identifies the groups used for evaluation of toxicity.
Animals were anesthetized and immunized at the base of the tail and two sites on the back on day 0 and day 6. Animals were weighed on days 0, 3, 9-24. […] Treatment was administered either alone or in combination with etanercept, (1 mg/kg) dosed subcutaneously on days 9, 12 and 15. […] The remaining 4 animals were sacrificed for necropsy on day 16.

[2] = system: developing type II collagen arthritis; test: Rat collagen arthritis model, dose responsive efficacy, IV or SC 2x/week (Example 4); assay type: in vivo; details: IV 2x/week, read-out: average ED50 value for efficacy (AUC+Final Paw Weight)
Source text: as §1
(§2) Bovine Type II collagen (Sigma) was diluted with 0.1N acetic acid to a concentration of 4 mg/ml. and emulsified with an equal volume of Freund's incomplete adjuvant (Sigma).
(§3) The rats were anesthetized and given collagen injections spread over 3 subcutaneous sites on back on day 0 and day 6. […] Rats were weighed on days 0, 3, 6, and 9-18 of the study, and caliper measurements of ankles were taken every day beginning on day 9 (or day 0 of arthritis). After final body weight measurement on day 18, animals were euthanized, blood was drawn for serum (for clinical chemistries) and CBC analysis and tissues were collected. No clinical chemistry or CBC analysis was done for groups 5s and 12s, however these groups were sampled for drug levels for pharmacokinetic analysis.

[3] = system: developing type II collagen arthritis; test: Rat collagen arthritis model, prophylactic IV treatment 3x/week, day 0-16 (Example 3); assay type: in vivo
Source text: as §1, §2
The rats were anesthetized and given collagen injections spread over 3 subcutaneous sites on back on day 0 and day 6.

[4] = Observation on high dose MTX dosing preparation; assay type: physicochemical; details: 0.75 mg/kg dose preparation
[5] = Lewis, rat, in vivo, 18 day
Source text: as §3
Complete Blood Counts (CBC) and Clinical Chemistries were evaluated for each group.

[6] = batches 70 mg/kg, methotrexate 0.2 mg/kg, FIG. 5

Row | Compound | % decrease in ankle diameter verses disease control, drug alone ([1]; 1 mg/kg SC days 9, 12, 15) | ED50 [2] | % decrease in ankle diameter verses disease control, drug alone ([1]; 0.25 mg/kg PO 2x/week) | decreases in ankle diameter from disease control, alone or in combination with etanercept ([1]; ATI-101 5, 20 and 65 mg/kg, MTX 0.25 mg/kg) | inhibition of ankle diameter AUC as compared to disease controls ([3]; Batch 1 and Batch 2 70 mg/kg, MTX 0.2 mg/kg, IV 3x/week, 17 day study) | inhibition of final paw weights as compared to disease controls ([3]; Batch 1 and Batch 2 70 mg/kg, MTX 0.2 mg/kg, IV 3x/week, day 17) | ankle cartilage damage, representative photomicrograph [3, 6] | ankle pannus and bone destruction, representative photomicrograph [3, 6] | ankle synovitis, representative photomicrograph [3, 6] | behaviour of high dose preparation in solution [4] | therapeutic index, considering bone marrow suppression at 0.5 mg/kg ([5]; 0.5 mg/kg) | dose value for life threatening toxicity (bone marrow suppression) ([5]; iv)
1 | etanercept | 37% |  |  |  |  |  |  |  |  |  |  | 
2 | CN(Cc1cnc2nc(N)nc(N)c2n1)c1ccc(C(=O)N[C@@H](CCC(=O)O)C(=O)O)cc1 [MTX, Methotrexate] |  | 0.25 mg/kg | 52% | Significant decreases | 54% | 46% | minimal | minimal | moderate | did not remain completely in solution | less than 2 | 0.75 mg/kg
